This note sets out measurements from PMC12645137 (Current Neuropharmacology, 2025).

The subject of test [1] is scopolamine-induced amnesic mice. Kind of test: Open field test (OFT) in scopolamine-induced amnesic animals. Format: in vivo, albino mice. Particulars: i.p., AN-1 10 mg/kg, progesterone 10 mg/kg, galantamine 8 mg/kg. How it is done:
(§1) The mice were divided into the following five groups, and each group had six animals. The standard drug and test samples were carefully administered to the mice via the intraperitoneal route.
(§2) Group IV (Progesterone treated group) = Animals treated with 10 mg/kg progesterone and scopolamine 1 mg/kg.
(§3) Group V (Test compound group) = Animals received 10 mg/kg progesterone derivative (AN-1) and 1 mg/kg scopolamine.
Open field behavioral test was carried out for the assessment of locomotor activities like the number of line crossing. The apparatus was made from plywood having 81×81×28.5 cm dimensions. Sixteen squares (20×20 cm) were made on the base of the apparatus by drawing four horizontal and four vertical lines. […] Furthermore, exploration time spent by mice in central and peripheral areas of the apparatus was also recorded by allowing the mice for 30 minutes to explore the apparatus.

Test [2] has the same test system. In words: Elevated Plus Maze (EPM) test in scopolamine-induced amnesic animals. Type of test: in vivo, albino mice. Particulars: scopolamine 1 mg/kg amnesic mice, i.p., AN-1 10 mg/kg, progesterone 10 mg/kg, galantamine 8 mg/kg. As for the experimental part:
as §1, §2, §3
The EPM behavioral test was performed to assess the learning abilities and long-term spatial memory of the experimental animals. The EPM apparatus has the appearance of a plus sign which was 50 cm elevated from the ground. The apparatus has two open arms (50 cm long and 10 cm wide), and two closed arms having dimensions of 20, 50, and 10 cm in height, length, and width, respectively. The open and closed arms were joined with a 10 × 10 central square.
After 30 minutes of the intraperitoneal drug administration on the seventh day of treatment, mice of each group were placed over the open arm end of the EPM apparatus in such a way that their faces were away from the midpoint of the apparatus. Transfer latency (TL) is the time a mouse takes to enter the closed arm entirely with all its legs from the open arm of the apparatus. The time of initial transfer latency (ITL) was observed, and then the animals were allowed freely for 1.5 minutes to search the EPM apparatus.
After twenty-four hours of the training period, test trials were conducted to determine the retention of tasks that were learnt during training. Retention transfer latency (RTL) was measured by placing the experimental mice at the open end of the apparatus, ensuring that they faced away from its midpoint. The mouse was allowed to enter the closed arm entirely with all its legs. A decline in TL compared to ITL indicated an improvement in memory.

The target of test [3] is T1, BChE (source equine serum) (Equus caballus, UniProt P81908).
T1 construct: from tissue; host or cells: equine serum
T1 sequence (P81908 whole entry): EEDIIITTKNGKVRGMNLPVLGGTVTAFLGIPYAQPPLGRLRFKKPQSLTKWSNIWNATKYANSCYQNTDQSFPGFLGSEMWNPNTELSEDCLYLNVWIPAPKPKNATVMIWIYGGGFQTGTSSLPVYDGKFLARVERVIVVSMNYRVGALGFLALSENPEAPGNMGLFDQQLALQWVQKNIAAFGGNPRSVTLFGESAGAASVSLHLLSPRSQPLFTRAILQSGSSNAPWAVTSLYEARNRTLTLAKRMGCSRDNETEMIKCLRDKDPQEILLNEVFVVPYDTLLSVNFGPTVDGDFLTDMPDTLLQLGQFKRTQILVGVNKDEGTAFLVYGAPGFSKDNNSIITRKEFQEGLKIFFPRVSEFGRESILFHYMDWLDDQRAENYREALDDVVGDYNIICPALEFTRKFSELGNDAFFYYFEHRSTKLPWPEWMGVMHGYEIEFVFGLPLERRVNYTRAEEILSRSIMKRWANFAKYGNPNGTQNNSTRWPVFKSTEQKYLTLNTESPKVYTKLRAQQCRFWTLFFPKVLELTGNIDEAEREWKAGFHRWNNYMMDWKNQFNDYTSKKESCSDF
In words: biochemical. How it is done:
(§4) The cholinesterase inhibitory potentials of our synthesized compounds were evaluated against cholinesterase enzymes (AChE/BChE). The AChE (source Electric eel) and BChE (source equine serum) were used in the study following previously published Ellman's assay. The assay basic principle involves the hydrolytic breakdown of acetylthiocholine iodide (ATChI) by AChE and butyryl thiocholine iodide (BTChI) by BChE enzymes, leading to the formation of an intermediate compound which is subsequently complexed with 5,5-dithio bis nitrobenzoic acid (DTNB) to form a UV-detectable compound. The yellowish color product indicates the hydrolysis of ATChI and BTChI substrates by respective enzymes, which were analyzed at 412 nm using a UV-visible spectrophotometer. […] A test sample of 1000 µl was taken in a cuvette, to which enzyme solution (50 µl) and DTNB reagent of 50 µL were added. The AChE (0.03 U/ml) and BChE (0.01 U/ml) solutions were prepared in 0.1 M phosphate buffer having pH 8.0. The ATChI and BTChI substrate solutions (0.0005 M) and 0.0002273 M solution of DTNB were prepared using distilled water and stored at 8°C before further use. For 15 minutes, the solution mixture was incubated at 30 °C, after which a solution of the substrate (50 µl) was added and then subjected to spectroscopic analysis. Using a double beam spectrophotometer, the sample absorbance was measured for 4 minutes at 412 nm beside the time of reaction. […] All values were taken in triplicate under the same conditions.
(§5) Enzymatic activity percentage=V/Vmaxx100
(§6) V is the reaction rate in the inhibitor's presence, whereas Vmax is the reaction rate in the absence of the inhibitor.

In test [4] the target is T2, AChE (source Electric eel) (Electrophorus electricus, UniProt O42275).
T2 construct: from tissue
T2 sequence (O42275 24-633): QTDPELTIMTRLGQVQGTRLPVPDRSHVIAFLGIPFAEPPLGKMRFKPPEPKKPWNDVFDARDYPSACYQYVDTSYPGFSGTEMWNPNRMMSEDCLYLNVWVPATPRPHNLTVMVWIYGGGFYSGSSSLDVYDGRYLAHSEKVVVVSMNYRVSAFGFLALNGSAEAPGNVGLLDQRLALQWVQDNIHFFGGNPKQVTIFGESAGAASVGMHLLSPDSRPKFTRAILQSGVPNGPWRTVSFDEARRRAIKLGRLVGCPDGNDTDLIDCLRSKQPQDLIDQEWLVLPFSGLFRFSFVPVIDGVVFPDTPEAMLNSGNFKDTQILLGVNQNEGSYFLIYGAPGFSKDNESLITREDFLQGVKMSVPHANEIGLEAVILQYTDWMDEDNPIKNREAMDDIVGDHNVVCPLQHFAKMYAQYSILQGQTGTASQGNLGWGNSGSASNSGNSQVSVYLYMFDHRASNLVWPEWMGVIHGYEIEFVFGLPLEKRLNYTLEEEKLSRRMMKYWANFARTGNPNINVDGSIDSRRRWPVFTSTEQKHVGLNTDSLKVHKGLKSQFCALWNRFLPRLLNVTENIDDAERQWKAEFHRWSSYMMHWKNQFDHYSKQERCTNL
In words: biochemical. How it is done: as §4, §5, §6

A short description of test [5]: DPPH antioxidant assay. Format: physicochemical. Conditions: for % Inhibition (DPPH free radicals): mean ± SEM. How it is done:
To evaluate the in-vitro antioxidant potential of the synthesized derivatives, a previously reported 1,1 Diphenyl, 2 Picrylhydrazyl (DPPH) assay was utilized. The DPPH solution was prepared by dissolving twenty-four mg DPPH in methanol (100 ml). Test sample solutions in various concentrations (62.50 to 1000 μg/mL) were also prepared. From each dilution, 1 ml sample solution was taken to which 1 ml solution of DPPH was added. The solution mixture was incubated at 23°C for 30 minutes in the dark and then subjected to a UV-visible spectrophotometer to note the absorbance at 517 nm. The absorbance values of all samples were taken in triplicate. Ascorbic acid served as positive control, while negative control only contained a solution of DPPH having no test samples. The % free radical scavenging potential of our compounds was determined by the given formula.
% free radical scavenging activity = [drawing 2] x100
X is the control absorbance, whereas X1 is the absorbance of the test sample.
(In general: Loss of DPPH colour is used to gauge radical scavenging.)

Take `COc1ccc(C/N=C(/C)[C@H]2CC[C@H]3[C@@H]4CCC5=CC(=O)CC[C@]5(C)[C@H]4CC[C@]23C)cc1` [AN1, (8S,9S,10R,13S,14S)-17-((Z)-1-((4-methoxybenzyl)imino)ethyl)-10,13-dimethyl-1,2,6,7,8,9,10,11,12,13,14,15,16,17-tetradecahydro-3H-cyc-lopenta[a]phenanthren-3-one]: the “number of lines crossed” value in test [1] (5 min, scopolamine 1 mg/kg amnesic mice, disease group 26.33) is 43.66. Besides, in test [1] (30 min exploration, scopolamine 1 mg/kg amnesic mice, disease group 4.66), the “time spent in the central area” value is recorded as 10.33 mint. Besides, the “time spent in the peripheral area” value in test [1] (versus scopolamine/disease group) was “significantly (p<0.01) less time in the peripheral area”. Further, in test [2] (24 h after training, disease group 67 sec), the “retention transfer latency (RTL)” value amounted to 45.33 s. Moreover, in test [2] (disease group 73 sec), the “initial transfer latency (ITL)” value was found to be 50.16 s. Besides, the IC50 in test [3] worked out at 43.3 µM; in test [4], 56.5 µM; in test [5], 57.2 µM. The inhibition at 62.5 µg/mL in test [3] (read-out: % BChE Inhibition) is 61.5%. Besides, the figures for the inhibition at 125 µg/mL in test [3] (read-out: % BChE Inhibition) and in test [4] (read-out: % AChE Inhibition) were 68.3% and 69.4%, respectively. Further, the inhibition at 250 µg/mL in test [3] (read-out: % BChE Inhibition) was 71.9%; in test [4] (read-out: % AChE Inhibition), 76.3%. Moreover, the inhibition at 500 µg/mL was 80.4% in test [3] (read-out: % BChE Inhibition) and 83.2% in test [4] (read-out: % AChE Inhibition). Further, the inhibition at 1000 µg/mL was 86.8 ± 1.24% in test [3] (read-out: % BChE Inhibition) and 88.9 ± 1.2% in test [4] (read-out: % AChE Inhibition). Further, the “% Inhibition (DPPH free radicals)” value in test [5] (62.5 µg/ml) is 56.46 ± 1.12%; in test [5] (125 µg/ml), 67.64 ± 3.04%; in test [5] (250 µg/ml) it was 70.00 ± 3.95%; in test [5] (500 µg/ml), 76.15 ± 2.31%; in test [5] (1000 µg/ml), 83.37 ± 2.03%.

By IC50 is commonly meant the concentration that inhibits the measured activity by half. The low end stands for higher potency, the high end for lower potency. What is called inhibition is how much of the control response was suppressed.
